# Entries after “also recorded” stand apart in the source; their conditions may differ.
# Legend:
# [1] = test system: RORγt--Jurkat cells; assay: Luciferase reporter activity in RORγt--Jurkat (RORγt-LBD negative) control cells; format: cell-based; conditions: different concentrations of PMA (100 nM, 10 nM, 1 nM), 4 and 6 hr
# Description: (§1) Similar to the above procedure, to obtain the needed Jurkat-RORγt reporter cell lines, a total of 1x10^7 Jurkat cells were transfected with 20 μg pGL4.31 reporter plasmids by electroporation (Lonza, Swiss) according to the manufacturer’s instructions. The transfected Jurkat cells were also selected in RPMI 1640 medium containing 200 μg/mL hygromycin B. And then the 20 μg PBIND-RORγtLBD-IRES-GFP plasmids were also transfected into the stable Jurkat clone and were sorted by GFP. GFP^+-Jurkat stable cell purity was determined >96% by flow cytometry analysis and GFP^--Jurkat stable cells were also sorted (Fig 1).
# RORγt^+-Jurkat (RORγt-LBD positive Jurkat cells) and RORγt^--Jurkat (RORγt-LBD negative Jurkat cells) stable cells (1x10^5) were seeded onto separate 12-well plates and cultured overnight. Cells were then stimulated with different concentrations of PMA (100 nM, 10 nM, 1 nM) or DMSO (negative control) for 4, 6, and 8 hr. […] Luciferase activity was highest in cells cultured with 100nM PMA, it was at approximately 40-fold over the DMSO control (Fig 2A and 2B). When RORγt^+-Jurkat cells were cultured for 6 hr, the luciferase activity was nearly identical across the concentrations and increased from control by about 40-fold at various concentrations (Fig 2D and 2E). […]
# [2] = target: T1, RORγt-LBD (Homo sapiens, UniProt P51449); assay: Inhibition of RORγt activity in RORγt+-293T stable reporter cells (luciferase); format: cell-based
# T1 sequence (P51449 269-508 limits assumed): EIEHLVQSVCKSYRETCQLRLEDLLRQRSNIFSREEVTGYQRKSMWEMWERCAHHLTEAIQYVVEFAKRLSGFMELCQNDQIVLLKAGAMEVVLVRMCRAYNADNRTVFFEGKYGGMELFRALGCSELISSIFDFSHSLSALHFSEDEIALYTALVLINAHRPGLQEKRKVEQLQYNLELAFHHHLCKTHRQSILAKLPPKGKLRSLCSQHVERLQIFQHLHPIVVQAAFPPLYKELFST
# From the text: (§2) The pGL4.31[luc2P/GAL4UAS/Hygro] reporter plasmid and the pBIND vector were purchased from Promega (USA). The fragment of IRES-GFP was first inserted into NotI sites of pBIND. Human RORγtLBD was amplified from cDNA of human PBMC (cDNA is provided by Dr. Hui Zhang) and then cloned into the pBIND-IRES-GFP to generate the fusion sequence Gal4DBD-RORγtLBD-IRES-GFP. The primers that were used to construct the pBIND-Gal4DBD-RORγtLBD-IRES-GFP plasmid are shown as follows: RORγtLBD forward 5’- […]-3’, reverse 5’- […] -3’.
# The 4 μg pGL4.31 reporter plasmids (promega, USA) were transfected into 293T cells (1 x 10^6) with Lipofectamin^TM 2000 (Invitrogen, USA) according to the manufacturer’s instructions. The transfected cells were then selected in medium containing 100 μg/mL hygromycin B (Roche, USA) for 3 weeks to obtain a stable clone which express pGL4.31 reporter gene. Then 4 μg pBIND-RORγtLBD-IRES-GFP plasmids were also transfected into the stable clone. The second transfected cells were sorted by Green Fluorescent Protein (GFP). Through this process, we obtained the 293T-RORγt stable reporter cell line. GFP^+-293T stable cell purity was determined >96% by flow cytometry analysis, which yielded a RORγt^+-293T (RORγt-LBD positive 293T cells) stable reporter cell line, and GFP^--293T stable cells were also sorted and used as a RORγt negative control cell line (Fig 1).
# RORγt^+-293T stable cells (1x10^4) were seeded into 96-well plates (Corning, Costar)and incubated in DMEM complete medium overnight. Then the candidates were added with a final concentration of 5 μM. Negative control (DMSO) and positive control were carried on as HTS. 6 hours later, the cells were then lysed and assayed for luciferase activity (Promega, USA) following the manufacturer’s instructions.
# [3] = target: T1, RORγt-LBD; assay: Gal4-RORγtLBD luciferase reporter assay in RORγt+-Jurkat stable cells (HTS / EC50 assay); format: cell-based; design: Human RORγtLBD was amplified from cDNA of human PBMC; expressed in transfected cells; host or cells: Jurkat cells stably carrying pGL4.31[luc2P/GAL4UAS/Hygro], GFP-sorted; conditions: for EC50: 5 μM to 8 nM 5-fold gradient, read-out: EC50 (anti-RORγt activity, relative luciferase activity)
# From the text: as §2, §1
# RORγt^+-Jurkat stable cells (2x10^4) were seeded into 96-well round-bottom plates (Corning, Costar)and incubated in RPMI1640 complete medium overnight. At initial round screening, drug-like set compounds (Enamine, Monmouth Jct, NJ) were added using a Tecan Freedom EVO150 (Tecan, Männedorf, Schweiz) with a final concentration of 50 μM, which used by other research. 50 μM concentration is pretty high in drug screening and always raises many false positive. To reduce these false positive, we reduced the compounds concentration to 5 μM in the second round validation screening. Column 12 of each plate received only DMSO instead of any compounds as a negative control. In addition, column 1 of each plate was treated with 100 nM PMA (Sigma-Aldrich, USA) as a positive control. 6 hours later, the cells were then lysed and assayed for luciferase activity (Promega, USA) following the manufacturer’s instructions.
# Jurkat-RORγt^+ stable cells were seeded into 96-well round-bottom plates (2x10^4) overnight and incubated with the compounds by 5-fold gradient, with final concentrations from 5μM to 8nM. 6h later, the cells were then lysed and assayed for luciferase activity (Promega, USA) following the manufacturer’s instructions. The values of half-maximal effective concentration (EC50) were determined by plotting the logarithm of compound concentration versus relative luciferase activity.
# The EC50 and CC50 of all three compounds were determined to further identify the effects of these three tetraazacyclic compounds. […] The CC50 values of each compound in Jurkat cells were also determined as previously described in the methods section.
# [4] = test system: Th17 cell differentiation; assay: Th17 differentiation of mouse CD4+CD25- T cells, qPCR of Rorγt, Il17a, Il17f; format: cell-based; conditions: 5 μM, normalized to Gapdh; for attenuation of Il17a mRNA expression vs vehicle-treated control: Th17 polarizing conditions (TGF-β, IL-6); for suppression of Il17f mRNA expression: Th17 polarizing conditions
# From the text: (§3) CD4^+CD25^- T cells were isolated from spleens of 12-week-old C57BL/6 as follows: single-cell suspensions were made by crushing the spleen through a cell strainer, and red blood cells (RBCs) were lysed with an RBC lysis buffer. CD4^+ T cells were then purified using MACS magnetic cell column with a CD4^+ T cell isolation kit (Miltenyi, Biotec) according to the manufacturer’s protocol. Isolated cells were fluorescently stained with PE-conjugated anti-mouse TCR-βAb, PE-Cy7-conjugated anti-mouse CD4 Ab and APC-conjugated anti-mouse CD25 Ab (BD Bioscience, USA) and analyzed by flow cytometry.
# (§4) The isolated CD4^+CD25^- T cells (3x10^6) were cultured under Th17 conditions. […] Specifically, the isolated CD4^+CD25^- T cells (3x10^6) were stimulated (in 6-well plates) with 5 μg/ml plate-bound anti-CD3e antibody (eBioscience, USA) and 2 μg/ml soluble anti-CD28 Ab (eBioscience, USA) for 24 hours. Then the activated cells were collected, resuspended and seeded into 96-well round-bottom plates (2x10^4) for Th17 differentiation in the presence of 5 ng/ml recombinant human TGF-β, 30 ng/ml recombinant mouse IL-6 (R&D systems) and DMSO as control or hit compounds with a final concentration of 5 μM. The cells were cultured for 2 days. Later, fresh medium was added (100ul/well) containing recombinant human TGF-β, recombinant mouse IL-6 (R&D systems) and the hit compounds as previously introduced for culturing another 2 days.
# After 5 days of culture, splenocyte total RNA was extracted with TRIzol (Invitrogen, USA). Then about 1000ng total RNA was added to a 20 μL reaction volume for reverse transcriptions by the GoScript Reverse Transcription System (Promega, USA) according to the manufacturer’s instructions, followed by real-time quantification using GoTaq qPCR Master Mix (Promega, USA). Gene expression of mouse Rorγt, Il17a and Il17f was normalized to the expression of Gapdh. The following primer sequences were used: Rorc forward 5’-TGTAATGTGG CCTACTCCTGCA-3’, reverse 5’-[…]-3’; Il17a forward 5’-[…]-3’, reverse 5’-[…]-3’; Il17f forward 5’-[…]-3’, reverse 5’- […]-3’; Gapdh forward 5’-[…]-3’, reverse 5’-[…]-3’.
# [5] = test system: IL-17A secretion; assay: IL-17A secretion by ELISA under Th17 polarizing conditions; format: cell-based, mouse; conditions: 5 μM; for IL-17A concentration in supernatant / reduction of IL-17A secretion vs vehicle-treated control cells: Th17 polarizing conditions, ELISA
# From the text: as §3, §4
# After 5 days of culture, the concentration of IL-17A in the supernatant was determined by an ELISA kit according to the manufacturer’s protocol (CUSABIO Systems, China).
# [6] = Cell viability (MTT) assay; format: cell-based; conditions: human, wild type Jurkat cells, highest concentration 5 μM
# Description: The cell viabilities of Jurkat cells (wild type) after treatment with chemicals were assessed by MTT technique. In brief, wild type Jurkat cells were seeded (2x10^4) and incubated with the compounds by 5-fold gradient concentrations, as described above. 48h treatment later, MTT (Dimethylthiazolyl-2-5-diphenyltetrazolium bromide) dye solution (Sigma, USA) was added into the 96-well plate and incubated at 37°C for 4 h, MTT is cleaved by live cells to a colored formazan product. After centrifugation (1500rpm, 5min) the supernatant was discarded. 100μl DMSO was added to dissolve the formazan product and gently shaken for 10min. Absorbance at 570 nm wavelength was recorded using a Thermo Scientific Multiskan FC (Thermo Scientific, USA). Each treatment was repeated in quadruplicate. Cell viabilities were defined relative to control cells (DMSO treated). The half-maximal cytotoxic concentration (CC50) for each compound was calculated from these dose-response curves with the aid of Graphpad Prism software (GraphPad Software, CA).
# [7] = test system: Th17 cell differentiation; design: method as in PMID 21499262, PMID 22769242; conditions: cited from earlier work
Structure (SMILES),"inhibition at 5 µM ([2]; 5 μM, 6 h, vs vehicle control)","inhibition at 5 µM ([3]; 5 μM, 6 hr, vs vehicle control)","EC50 ([3]; RORγt+-Jurkat cells, 6 hr)","inhibition of reporter activity in RORγt+-293T cells ([2]; 5 μM, 6 h, vs vehicle control)",luciferase activity in RORγt--Jurkat cells [1],"greatest increase in luciferase activity vs DMSO ([2]; RORγt+-293T cells, 100 nM PMA, 4 hr and 6 hr)","luciferase activity, fold over DMSO control ([3]; RORγt+-Jurkat cells, 100 nM PMA, 4 hr)","luciferase activity, fold increase from control ([3]; RORγt+-Jurkat cells, 100 nM, 10 nM, 1 nM PMA, 6 hr)",attenuation of Il17a mRNA expression vs vehicle-treated control [4],suppression of Il17f mRNA expression [4],IL-17A concentration in supernatant [5],reduction of IL-17A secretion vs vehicle-treated control cells [5],"suppression / reduction in IL-17A production (Discussion summary) ([5]; mouse Th17 differentiation, for 11 and 14 both mRNA expression and protein secretion)",CC50 at 48 h [6],activity in Th17 cell differentiation study [7]
"CCCCCCCCCCCCCC(=O)O[C@@H]1[C@@H](C)[C@@]2(O)[C@@H](C=C(CO)C[C@]3(O)C(=O)C(C)=C[C@@H]23)[C@@H]2C(C)(C)[C@]12OC(C)=O [PMA, phorbol-12-myristate-13-acetate, reference compound]",,,,,no significant increase,4–6 folds,approximately 40 fold,approximately 40 fold,,,,,,,
"CCN(CC)Cc1nc(Sc2nnnn2-c2ccccc2)c2c(C)c(C)sc2n1 [compound 7, N-[[5,6-dimethyl-4-(1-phenyltetrazol-5-yl)sulfanylthieno[3,2-e]pyrimidin-2-yl]methyl]-N-ethylethanamine]",95%,75%,2600 nM,,,,,,65%-80%,87%,196 pg/mL,47%,~ 50%,1500 nM,
CC(=O)Nc1nc(C)c(S(=O)(=O)Nc2ccc(C(O)(C(F)(F)F)C(F)(F)F)cc2)s1 [SR1001],,,,,,,,,,,,,,,relatively weak activity

# Second part, led by results:
"inhibition at 5 µM ([2]; 5 μM, 6 h, vs vehicle control)","inhibition at 5 µM ([3]; 5 μM, 6 hr, vs vehicle control)","EC50 ([3]; RORγt+-Jurkat cells, 6 hr)","inhibition of reporter activity in RORγt+-293T cells ([2]; 5 μM, 6 h, vs vehicle control)",Structure (SMILES),luciferase activity in RORγt--Jurkat cells [1],"greatest increase in luciferase activity vs DMSO ([2]; RORγt+-293T cells, 100 nM PMA, 4 hr and 6 hr)","luciferase activity, fold over DMSO control ([3]; RORγt+-Jurkat cells, 100 nM PMA, 4 hr)","luciferase activity, fold increase from control ([3]; RORγt+-Jurkat cells, 100 nM, 10 nM, 1 nM PMA, 6 hr)",attenuation of Il17a mRNA expression vs vehicle-treated control [4],suppression of Il17f mRNA expression [4],IL-17A concentration in supernatant [5],reduction of IL-17A secretion vs vehicle-treated control cells [5],"suppression / reduction in IL-17A production (Discussion summary) ([5]; mouse Th17 differentiation, for 11 and 14 both mRNA expression and protein secretion)",CC50 at 48 h [6],activity in Th17 cell differentiation study [7]
,,670 nM,significantly less inhibition,"Cc1cccc(C)c1-n1nnnc1Sc1ncnc2ccsc12 [compound 14, 4-[1-(2,6-dimethylphenyl)tetrazol-5-yl]sulfanylthieno[3,2-d]pyrimidine]",,,,,65%-80%,did not significantly inhibited; also recorded: no significant inhibition,88 pg/mL,74%,,> 5000 nM,
,,250 nM,significantly less inhibition,"Cc1ccccc1-n1nnnc1Sc1ccnc2cc(Cl)ccc12 [compound 11, 7-chloro-4-[1-(2-methylphenyl)tetrazol-5-yl]sulfanylquinoline]",,,,,65%-80%,90%,136 pg/mL,63%,,> 5000 nM,

# — article PMC4569406, “Identification of Tetraazacyclic Compounds as Novel Potent Inhibitors Antagonizing RORγt Activity and Suppressing Th17 Cell Differentiation” (PLoS ONE, 2015)
